Data reported in ChEMBL document CHEMBL1145261, “Design and synthesis of novel diphenacoum-derived, conformation-restricted vitamin K 2,3-epoxide reductase inhibitors” (Bioorg Med Chem Lett, 2005).

Biological target: T1, Vitamin K epoxide reductase complex subunit 1 (Bos taurus, UniProt Q6B4J2)
T1 sequence (Q6B4J2 whole entry): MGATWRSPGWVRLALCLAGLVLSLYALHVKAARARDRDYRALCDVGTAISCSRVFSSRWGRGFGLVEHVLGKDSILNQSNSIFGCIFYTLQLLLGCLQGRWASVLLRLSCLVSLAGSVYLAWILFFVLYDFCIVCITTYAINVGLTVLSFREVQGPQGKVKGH
Test: Inhibitory concentration against beef liver Vitamin K epoxide reductase (vitamin K 2,3-epoxide reductase)

Row | Structure (SMILES) | IC50 [nM]
1 | O=c1oc2ccccc2c(O)c1C1CC(c2ccc(-c3ccccc3)cc2)Oc2ccccc21 (configuration not stated) | 40
2 | O=c1oc2ccccc2c2c1C1CC(c3ccc(-c4ccccc4)cc3)(Oc3ccccc31)O2 (configuration not stated) | 1000
